This passage reports TGI and GI50 results from PubChem BioAssay (NCI).

Common to all, as to test: NCI tumour cell line growth inhibition, 48 h
The test system of assay [1] is OVCAR-4 ovarian.
In assay [2] the test system is OVCAR-5 ovarian.
Assay [3] relates to LOX IMVI melanoma.
Assay [4] deals with BT-549 breast.
For assay [5], the system named is CAKI-1 renal.
In assay [6] the test system is TK-10 renal.
Assay [7] relates to OVCAR-8 ovarian.
Assay [8] deals with NCI-H23 lung.
For assay [9], the system named is SW-620 colon.

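48-hour exposure; five concentrations; linearly interpolated endpoints. GI50 marks 50% less growth. TGI is the concentration that stops growth completely.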

Turning to `Cc1ccc2c(=O)cc(-c3ccc(C)s3)[nH]c2n1`, the TGI is greater than 100 µM in assay [1]; greater than 100 µM in [2]; greater than 42.9 µM in assay [3]; greater than 100 µM in assay [4]; greater than 100 µM in assay [5]; greater than 100 µM in assay [6]. The molecule further registered a TGI in assay [7] greater than 28.3 µM.

For the molecule `[B-][P+](CC[P+]1([B-])[C@@H](C)[C@@H](O)[C@H](O)[C@@H]1C)(c1ccccc1)c1ccccc1OC` (some centres undefined), the TGI in assay [1] stood at 31.7 µM; in assay [2], 32 µM; in assay [8], 31.3 µM; in assay [3] it was 8.51 µM; in assay [5], 30.4 µM; in assay [6], 32.5 µM. Also, the TGI in assay [7] amounted to 31.5 µM; in assay [9], 31.9 µM.

Take `O=C1CC(CC(=O)c2ccc(Br)cc2)C(=O)/C1=C(/O)c1ccc(Br)cc1` (centres undefined): the TGI in [2], in assay [8], in [3], in assay [5], in assay [6] and in assay [7] was greater than 100 µM in each case. In assay [9], this molecule gave a TGI greater than 100 µM.

Turning to `COc1ccc(-c2c3c(n(C4OC(CO)C(O)C(O)C4O)c(=S)c2C#N)CCCC3)cc1` (centres undefined), the TGI in assay [1], in assay [2], in assay [8], in assay [3], in [5] and in assay [6] was greater than 100 µM in each case. The TGI in assay [7] and in assay [9] was greater than 100 µM throughout.

Turning to `COc1cc2c(c(OC)c1OC)-c1ccc(SC)c(=O)cc1[C@@H](O)CC2`, the results for the GI50 in assay [1], in assay [4] and in assay [6] were greater than 100 µM, 98.4 µM and greater than 100 µM, respectively. In addition, the TGI in assay [1], in assay [3], in [5], in assay [6] and in [9] was greater than 100 µM in each case.

With `O=C(N/N=C/c1cc(Br)cc(Br)c1[O-])c1ccccc1O.O=C(N/N=C/c1cc(Br)cc(Br)c1[O-])c1ccccc1O.[Zn+2]`, the TGI in [1] was 1.5 µM; in [2], 13.1 µM; in assay [8], 3.17 µM; in assay [3] it was 13.7 µM; in [5], 7.29 µM; in assay [6], 15 µM. In addition, the TGI in assay [7] is 10.5 µM; in assay [9], 19.5 µM.

Turning to `O=C1NN(Cc2ccccc2)C(=O)N2CCC[C@@H]12`, the TGI in assay [1], in assay [2], in assay [8], in [3], in assay [5] and in [6] was greater than 100 µM each time. Besides, the TGI in assay [7] and in assay [9] was greater than 100 µM each time.

On to `CCOC(=O)/C(=N/Nc1ccccc1)N1C(=S)C=C(C)NN(C)C1=S`, for which the TGI in assay [1], in [2], in [8], in [4], in [5] and in assay [6] was greater than 100 µM throughout. Moreover, the TGI in assay [7] and in assay [9] was greater than 100 µM in each case.

For the molecule `CC1=CC[C@@]2(C)CC[C@](O)(C(C)C)C2C(OC(=O)c2ccccc2)C1` (some centres undefined), the TGI was determined as 62.2 µM in assay [1]; 30.1 µM in assay [2]; 38.9 µM in [8]; 42 µM in assay [3]; 44.9 µM in [5]; 35.3 µM in [6]. Further, the TGI in assay [7] was determined as 37.5 µM; in assay [9], 54.4 µM.

As to `Nc1nc(NCCCO)cc(=O)[nH]1`, the TGI in [1], in [2], in assay [8], in assay [3], in assay [4] and in assay [5] was greater than 100 µM throughout. Also, the TGI in assay [7] and in assay [9] was greater than 100 µM throughout.

On to `O=C1O[C@H]2[C@H](OC(=O)c3cc(O)c(O)c(O)c3)[C@@H](OC(=O)c3cc(O)c(O)c4c3[C@@H]3C1=CC(=O)C(O)(O)C3(O)O4)[C@H](OC(=O)c1cc(O)c(O)c(O)c1)O[C@@H]2COC(=O)c1cc(O)c(O)c(O)c1` (some centres undefined), for which the TGI in assay [1], in [2], in assay [8], in assay [3], in assay [4] and in assay [5] was greater than 100 µM in each case. The TGI in [7] and in assay [9] was greater than 100 µM each time.

Take `COc1ccc2c(c1)CCCN1CCc3ccccc3C21` (centres undefined): the TGI in assay [1], in assay [2], in [8], in [3], in assay [5] and in assay [6] was greater than 100 µM in each case. For the same molecule, the TGI in [7] and in assay [9] was greater than 100 µM throughout.

With `COC(=O)CCNC(=O)OCc1ccccc1`, the TGI in [2], in assay [8], in assay [3], in [4], in [5] and in assay [6] was greater than 100 µM each time. For the same molecule, the TGI in assay [7] and in assay [9] was greater than 100 µM each time.

Take `Nc1ncnc2c1ncn2C1CCC(CP(=O)(O)O)C1` (centres undefined): the TGI in [1], in assay [2], in assay [8], in assay [3], in assay [6] and in assay [7] was greater than 100 µM throughout. This molecule also gave a TGI in assay [9] greater than 100 µM.

In the case of `COc1c(C(=O)NCCN(CCNC(=O)c2cccc(-c3cccc(C(=O)N(C)C)c3OC)c2OC)CCNC(=O)c2cccc(-c3cccc(C(=O)N(C)C)c3OC)c2OC)cccc1-c1cccc(C(=O)N(C)C)c1OC`, the TGI is 84 µM in assay [1]; greater than 100 µM in assay [2]; greater than 100 µM in assay [8]; 33.7 µM in assay [3]; greater than 100 µM in [5]; greater than 100 µM in [7]. The TGI in assay [9] is greater than 100 µM.

For `CC(C)(Cl)C(Br)CCC(Br)(CCl)C(Cl)CBr` (centres undefined), the TGI in assay [1], in assay [2], in [8], in assay [3], in assay [5] and in assay [6] was greater than 10 µM throughout. The TGI in [7] and in assay [9] was greater than 10 µM throughout.
